From the C3SDB collision cross section collection
Where “and” joins values, the source holds several entries; their conditions need not be identical. Equal entries are not always repeated.

Assays:
[1] = instrument: DT, single field, calibrated with Agilent tune mix (Agilent)
[2] = instrument: TW, calibrated with polyalanine and drug standards
[3] = instrument: DT, single field, calibrated with ESI Low Concentration Tuning Mix (Agilent)

SMILES | collision cross section (N2) ([2]; [M+H]+) | collision cross section (N2) ([3]; [M+H]+) | collision cross section (N2) ([3]; [M+Na]+) | collision cross section (N2) ([3]; [M-H]-) | further results
NC(CCCC(=O)O)C(=O)O (racemic) [DL-2-Aminoadipic acid] | – | – | – | – | collision cross section (N2) ([1]; [M+H]+): 134.4 Å²; collision cross section (N2) ([1]; [M-H]-): 127.69 Å²
O=C(O)C(CO)OP(=O)(O)O (racemic) [DL-2-Phosphoglycerate] | – | – | – | – | collision cross section (N2) ([1]; [M+Na]+): 141.8 Å²
CS(=O)CCC(N)C(=O)O (racemic) [DL-Methionine sulfoxide] | – | – | – | – | collision cross section (N2) ([1]; [M+H]+): 133.1 Å²
Cn1c(=O)[nH]c2ncn(C)c2c1=O [1,7-Dimethylxanthine] | – | – | – | – | collision cross section (N2) ([1]; [M-H]-): 133.24 Å²
Cn1cc(CCN)c2ccccc21 [1-Methyltryptamine] | – | – | – | – | collision cross section (N2) ([1]; [M+Na]+): 139 Å²
Cn1c(=O)[nH]c2[nH]c(=O)[nH]c2c1=O [1-Methyluric acid] | – | – | – | – | collision cross section (N2) ([1]; [M-H]-): 129.18 Å²
O=C(O)c1ccccc1O[C@@H]1O[C@H](C(=O)O)[C@@H](O)[C@H](O)[C@H]1O [1-Salicylate glucuronide] | – | – | – | – | collision cross section (N2) ([1]; [M+Na]+): 170.1 Å²; collision cross section (N2) ([1]; [M-H]-): 157.84 Å²
Nc1ncnc2c1ncn2[C@H]1C[C@H](O)[C@@H](COP(=O)(O)O)O1 [2'-Deoxyadenosine 5'-monophosphate] | – | – | – | – | collision cross section (N2) ([1]; [M+H]+): 168.1 Å²
Nc1ccn([C@H]2C[C@H](O)[C@@H](COP(=O)(O)O)O2)c(=O)n1 [2'-Deoxycytidine 5'-monophosphate] | – | – | – | – | collision cross section (N2) ([1]; [M+Na]+): 164 Å²
O=C(O)C(COP(=O)(O)O)OP(=O)(O)O [2,3-Diphospho-D-glyceric acid] | – | – | – | – | collision cross section (N2) ([1]; [M+Na]+): 152.3 Å²
CC(=O)OCC[N+](C)(C)C [ACETYLCHOLINE] | – | – | – | – | collision cross section (N2) ([2]; [M]+): 130.1 Å²; collision cross section (N2) ([3]; [M+]+): 129.5 Å²
Nc1ncnc2nc[nH]c12 [ADENINE] | 122.4 Å² | 124.9 Å² | 137 Å² and 137.4 Å² | 119.6 Å² and 119.8 Å² | –
Nc1ncnc2c1ncn2[C@@H]1O[C@H](CO)[C@@H](O)[C@H]1O [ADENOSINE] | 156.9 Å² | 155.6 Å² and 161.4 Å² | 165.5 Å² | 157.6 Å² | –
O=C(O)CCCC[C@@H]1SC[C@@H]2NC(=O)N[C@@H]21 [BIOTIN] | 148 Å² | 149.7 Å² | 159.9 Å² | – | collision cross section (N2) ([3]; [M+K]+): 160.1 Å²; collision cross section (N2) ([3]; [M+Na-2H]-): 152.9 Å²
C[C@]12CCC(=O)C=C1CC[C@@H]1[C@@H]2C(=O)C[C@@]2(C)[C@H]1CC[C@]2(O)C(=O)CO [CORTISONE] | 184.4 Å² | 188.3 Å² | 213.2 Å² | 191.4 Å² | –
N[C@@H](CSSC[C@H](N)C(=O)O)C(=O)O [CYSTINE] | 148.1 Å² | 149.4 Å² | 151.2 Å² | 143 Å² | collision cross section (N2) ([3]; [M+Na-2H]-): 147.3 Å²
Nc1ccn([C@@H]2O[C@H](CO)[C@@H](O)[C@H]2O)c(=O)n1 [CYTIDINE] | 151.1 Å² | 151 Å² | 159.7 Å² | 149.8 Å² | –
Nc1ncnc2c1ncn2[C@H]1C[C@H](O)[C@@H](CO)O1 [DEOXYADENOSINE] | 154.6 Å² | 152.3 Å² and 158.1 Å² | 161.6 Å² | 155.3 Å² | –
O=C1O[C@H](CO)[C@@H](O)[C@H](O)[C@H]1O [GLUCONOLACTONE] | 127.6 Å² | – | 144.7 Å² | – | collision cross section (N2) ([3]; [M+H2O-H]-): 132.6 Å²; collision cross section (N2) ([3]; [M+H20-H]-): 132.5 Å²
